ChEMBL document CHEMBL1201862, “PubChem BioAssay data set” (2004)
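96-well plates; 48 h exposure; 5 concentrations. Endpoints by linear interpolation between flanking doses. Not reached: highest tested concentration assigned. Abbreviation: GI50, concentration required for 50% inhibition of growth.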 Activity calls are given as the source filed them. Cut-off read from the data, not from the text of the source: active = GI50 up to about 1.1 µM and inactive = higher.

Columns and labels:
Assay in all cases: NCI tumour cell line growth inhibition, 48 h
IGROV-1 = system: IGROV-1
OVCAR-3 = system: OVCAR-3
HOP-62 = system: HOP-62
HOP-92 = system: HOP-92
MDA-MB-231 = system: MDA-MB-231
SF-295 = system: SF-295
NCI/ADR-RES = system: NCI/ADR-RES
LOX IMVI = system: LOX IMVI
SK-MEL-28 = system: SK-MEL-28
ACHN = system: ACHN
OVCAR-8 = system: OVCAR-8
CAKI-1 = system: CAKI-1
SR = system: SR
MDA-MB-435 = system: MDA-MB-435
UO-31 = system: UO-31
SK-OV-3 = system: SK-OV-3
KM12 = system: KM12
A498 = system: A498
HCC 2998 = system: HCC 2998
HL-60 = system: HL-60

SMILES | GI50 (IGROV-1) | GI50 (OVCAR-3) | GI50 (HOP-62) | GI50 (HOP-92) | GI50 (MDA-MB-231) | GI50 (SF-295) | GI50 (NCI/ADR-RES) | GI50 (LOX IMVI) | GI50 (SK-MEL-28) | GI50 (ACHN) | GI50 (OVCAR-8) | GI50 (CAKI-1) | GI50 (SR) | GI50 (MDA-MB-435) | GI50 (UO-31) | GI50 (SK-OV-3) | GI50 (KM12) | GI50 (A498) | GI50 (HCC 2998) | GI50 (HL-60)
O=[N+]([O-])c1ccc2[nH]c(-c3ccc(Cl)cc3)nc2c1 | 31 µM (inactive) | 30.8 µM (inactive) | 21.5 µM (inactive) | 29 µM (inactive) | 15.5 µM (inactive) | 20.3 µM (inactive) | 21.2 µM (inactive) | 18.1 µM (inactive) | 39 µM (inactive) | 26.8 µM (inactive) | 30.1 µM (inactive) | 31.1 µM (inactive) | 26.3 µM (inactive) | 23.6 µM (inactive) | 23.9 µM (inactive) | 24 µM (inactive) | – | – | – | –
CN(C)CCCNc1ncnc2[nH]cnc12 | > 100 µM (inactive) | > 100 µM (inactive) | > 100 µM (inactive) | 38.1 µM (inactive) | > 100 µM (inactive) | > 100 µM (inactive) | > 100 µM (inactive) | > 100 µM (inactive) | > 100 µM (inactive) | > 100 µM (inactive) | > 100 µM (inactive) | > 100 µM (inactive) | – | > 100 µM (inactive) | > 100 µM (inactive) | > 100 µM (inactive) | > 100 µM (inactive) | > 100 µM (inactive) | > 100 µM (inactive) | –
CCOC(=O)NC(=S)NN(C)C1=NCC(C)(C)S1 | > 100 µM (inactive) | > 100 µM (inactive) | > 100 µM (inactive) | > 100 µM (inactive) | > 100 µM (inactive) | > 100 µM (inactive) | – | > 100 µM (inactive) | > 100 µM (inactive) | > 100 µM (inactive) | – | > 100 µM (inactive) | > 100 µM (inactive) | > 100 µM (inactive) | > 100 µM (inactive) | > 100 µM (inactive) | > 100 µM (inactive) | > 100 µM (inactive) | – | > 100 µM (inactive)
Cn1c(=O)c2c(nc(NCCCCl)n2CC(=O)NCCCCl)n(C)c1=O | > 100 µM (inactive) | > 100 µM (inactive) | > 100 µM (inactive) | > 100 µM (inactive) | > 100 µM (inactive) | > 100 µM (inactive) | > 100 µM (inactive) | > 100 µM (inactive) | > 100 µM (inactive) | > 100 µM (inactive) | > 100 µM (inactive) | > 100 µM (inactive) | – | > 100 µM (inactive) | > 100 µM (inactive) | > 100 µM (inactive) | > 100 µM (inactive) | > 100 µM (inactive) | > 100 µM (inactive) | > 100 µM (inactive)
O/N=C(\CC(O)(C(F)(F)F)C(F)(F)F)c1cccs1 | > 10 µM (inactive) | > 10 µM (inactive) | > 10 µM (inactive) | > 10 µM (inactive) | > 10 µM (inactive) | > 10 µM (inactive) | > 10 µM (inactive) | > 10 µM (inactive) | > 10 µM (inactive) | > 10 µM (inactive) | > 10 µM (inactive) | > 10 µM (inactive) | – | > 10 µM (inactive) | > 10 µM (inactive) | > 10 µM (inactive) | > 10 µM (inactive) | > 10 µM (inactive) | > 10 µM (inactive) | > 10 µM (inactive)
CC(=O)OCC1OC(n2ncc(=O)[nH]c2=O)C(OC(C)=O)C1OC(C)=O (stereo not drawn) | 17.8 µM (inactive) | 65.9 µM (inactive) | 21.7 µM (inactive) | > 100 µM (inactive) | > 10 µM (inactive) | 5.27 µM (inactive) | 61.7 µM (inactive) | 6.3 µM (inactive) | > 100 µM (inactive) | 4.9 µM (inactive) | 14.7 µM (inactive) | 9.4 µM (inactive) | 5.36 µM (inactive) | 32.4 µM (inactive) | – | 61.2 µM (inactive) | 11.3 µM (inactive) | – | 26.1 µM (inactive) | –
COC(=O)C1=C(C(=O)OC)C(OO)(c2ccccc2)OC1=O (stereo not drawn) | 35 µM (inactive) | > 100 µM (inactive) | – | > 100 µM (inactive) | 58.2 µM (inactive) | > 100 µM (inactive) | > 100 µM (inactive) | 31.3 µM (inactive) | > 100 µM (inactive) | > 100 µM (inactive) | > 100 µM (inactive) | > 100 µM (inactive) | 38.5 µM (inactive) | > 100 µM (inactive) | > 100 µM (inactive) | > 100 µM (inactive) | > 100 µM (inactive) | – | > 100 µM (inactive) | > 100 µM (inactive)
CC1CCC(O)(C(C)(C(=O)O)c2ccccc2)CC1 (stereo not drawn) | > 100 µM (inactive) | > 100 µM (inactive) | 68.1 µM (inactive) | 83.9 µM (inactive) | > 100 µM (inactive) | > 100 µM (inactive) | > 100 µM (inactive) | > 100 µM (inactive) | > 100 µM (inactive) | > 100 µM (inactive) | > 100 µM (inactive) | 57.4 µM (inactive) | – | > 100 µM (inactive) | > 100 µM (inactive) | – | > 100 µM (inactive) | 68.4 µM (inactive) | – | > 100 µM (inactive)
Cn1c(=O)n2n(c1=O)C([S+]([O-])c1ccccc1)C2 (stereo not drawn) | 32.1 µM (inactive) | > 100 µM (inactive) | > 100 µM (inactive) | > 100 µM (inactive) | > 100 µM (inactive) | > 100 µM (inactive) | > 100 µM (inactive) | 38.9 µM (inactive) | > 100 µM (inactive) | > 100 µM (inactive) | > 100 µM (inactive) | > 100 µM (inactive) | 38.3 µM (inactive) | > 100 µM (inactive) | > 100 µM (inactive) | > 100 µM (inactive) | 42.8 µM (inactive) | – | > 100 µM (inactive) | –
CC1OC(OC2C(O[C@H]3CC[C@@]4(C)[C@@H](CC[C@@H]5[C@@H]4CC[C@]4(C)[C@@H]6[C@H](C[C@@H]54)O[C@]4(CC[C@@H](C)CO4)[C@H]6C)C3)OC(CO)C(OC3OC(CO)C(O)C(OC4OCC(O)C(O)C4O)C3OC3OCC(O)C(O)C3O)C2O)C(O)C(O)C1O (stereo partly drawn) | 1.01 µM (active) | 1.74 µM (inactive) | 0.783 µM (active) | 1.67 µM (inactive) | 2.03 µM (inactive) | 0.904 µM (active) | 1.58 µM (inactive) | 0.514 µM (active) | 0.745 µM (active) | 0.942 µM (active) | 1.49 µM (inactive) | 0.706 µM (active) | – | 1.42 µM (inactive) | 1.04 µM (active) | 1.9 µM (inactive) | 0.518 µM (active) | 1.68 µM (inactive) | 1.63 µM (inactive) | 0.282 µM (active)
C=C(C)[C@@]1(O)O[C@H]2C[C@@]3(C)OC(=CC3=O)/C(C)=C\[C@@H]3OC(=O)[C@@]1(C)[C@H]32 | 15 µM (inactive) | 15.5 µM (inactive) | 21.6 µM (inactive) | 20.4 µM (inactive) | 17 µM (inactive) | 23.7 µM (inactive) | 13.1 µM (inactive) | 6.31 µM (inactive) | 12.6 µM (inactive) | 18.2 µM (inactive) | 27 µM (inactive) | 19.6 µM (inactive) | 6.97 µM (inactive) | 14.7 µM (inactive) | 30.1 µM (inactive) | 47.4 µM (inactive) | 15.1 µM (inactive) | – | 15.3 µM (inactive) | 14.2 µM (inactive)
CC(C)(C)OC(=O)NCCCCC(NC(=O)OCc1ccccc1)C(N)=O (stereo not drawn) | > 100 µM (inactive) | > 100 µM (inactive) | > 100 µM (inactive) | – | > 100 µM (inactive) | > 100 µM (inactive) | > 100 µM (inactive) | > 100 µM (inactive) | > 100 µM (inactive) | > 100 µM (inactive) | > 100 µM (inactive) | > 100 µM (inactive) | > 100 µM (inactive) | > 100 µM (inactive) | > 100 µM (inactive) | > 100 µM (inactive) | > 100 µM (inactive) | – | > 100 µM (inactive) | > 100 µM (inactive)
OCC1C(OCc2ccccc2)C(OCc2ccccc2)C(OCc2ccccc2)CN1Cc1ccccc1 (stereo not drawn) | 35.5 µM (inactive) | 47.5 µM (inactive) | 33 µM (inactive) | 9.64 µM (inactive) | 21.3 µM (inactive) | 30.3 µM (inactive) | 26.7 µM (inactive) | 31.3 µM (inactive) | 88.9 µM (inactive) | 3.38 µM (inactive) | 29.9 µM (inactive) | > 100 µM (inactive) | 8.83 µM (inactive) | 24.8 µM (inactive) | 18.4 µM (inactive) | > 100 µM (inactive) | 16.8 µM (inactive) | – | 28.2 µM (inactive) | –
O=c1[nH]cnc2c(C3OC(CO)C(O)C3O)c[nH]c12 (stereo not drawn) | > 100 µM (inactive) | > 100 µM (inactive) | > 100 µM (inactive) | 68.7 µM (inactive) | > 100 µM (inactive) | > 100 µM (inactive) | – | > 100 µM (inactive) | > 100 µM (inactive) | > 100 µM (inactive) | > 100 µM (inactive) | > 100 µM (inactive) | > 100 µM (inactive) | > 100 µM (inactive) | > 100 µM (inactive) | > 100 µM (inactive) | > 100 µM (inactive) | – | > 100 µM (inactive) | > 100 µM (inactive)
CCc1cccc2c3c([nH]c12)-c1ccccc1NC(=O)C3 | > 100 µM (inactive) | > 100 µM (inactive) | > 100 µM (inactive) | > 100 µM (inactive) | 5.66 µM (inactive) | > 100 µM (inactive) | > 100 µM (inactive) | 72.9 µM (inactive) | > 100 µM (inactive) | – | > 100 µM (inactive) | 43.6 µM (inactive) | – | 35.3 µM (inactive) | > 100 µM (inactive) | > 100 µM (inactive) | 7.06 µM (inactive) | 19.5 µM (inactive) | – | 92.3 µM (inactive)
